Reference: ChEMBL document CHEMBL1201862, “PubChem BioAssay data set” (2004)
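Each compound was tested at five concentrations against cells in 96-well plates for 48 hours. Abbreviation: GI50, concentration required for 50% inhibition of growth.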 Calls of active or inactive are those of the source. No stated cut-off is given here; in the data, active = GI50 up to about 1.1 µM and inactive = higher.

What was measured:
Test in all cases: NCI tumour cell line growth inhibition, 48 h
[1] = system: HCT-15
[2] = system: CCRF-CEM
[3] = system: TK-10
[4] = system: SF-539
[5] = system: SR
[6] = system: KM12
[7] = system: U-251
[8] = system: HCC 2998
[9] = system: NCI/ADR-RES
[10] = system: SN12C
[11] = system: UO-31
[12] = system: 786-0
[13] = system: CAKI-1
[14] = system: RXF 393
[15] = system: SK-MEL-5
[16] = system: OVCAR-8
[17] = system: RPMI-8226
[18] = system: M14
[19] = system: SK-MEL-2
[20] = system: UACC-62

Compound	GI50 [1]	GI50 [2]	GI50 [3]	GI50 [4]	GI50 [5]	GI50 [6]	GI50 [7]	GI50 [8]	GI50 [9]	GI50 [10]	GI50 [11]	GI50 [12]	GI50 [13]	GI50 [14]	GI50 [15]	GI50 [16]	GI50 [17]	GI50 [18]	GI50 [19]	GI50 [20]
O=C(NCCc1ccccc1)c1c(O)nc2ccccc2c1O	> 100 µM	> 100 µM (inactive)	> 100 µM (inactive)	> 100 µM (inactive)	> 100 µM (inactive)	> 100 µM (inactive)	> 100 µM (inactive)	> 100 µM (inactive)	> 100 µM (inactive)	> 100 µM (inactive)	> 100 µM (inactive)	> 100 µM (inactive)	> 100 µM (inactive)	> 100 µM (inactive)	> 100 µM (inactive)	> 100 µM (inactive)	> 100 µM (inactive)			
CCCC(=O)OCC1OC(n2cc(F)c(=O)[nH]c2=O)CC1OC(=O)CCC (stereo not given)	> 4.41 µM	0.0295 µM (active)	2.25 µM (inactive)	0.00511 µM (active)	0.034 µM (active)	> 5.02 µM (inactive)	3.26 µM (inactive)	0.0113 µM (active)	1.55 µM (inactive)	0.346 µM (active)	0.13 µM (active)	0.434 µM (active)	0.183 µM (active)	> 9.2 µM (inactive)	0.279 µM (active)	0.203 µM (active)	0.973 µM (active)	0.312 µM (active)	> 10 µM (inactive)	0.177 µM (active)
CC(C)[S+]1C2=C(CC(C)(C)CC2=O)[N-]c2ccccc21 (stereo not given)	> 100 µM	> 100 µM (inactive)	> 100 µM (inactive)		> 100 µM (inactive)	> 100 µM (inactive)	> 100 µM (inactive)	> 100 µM (inactive)	> 100 µM (inactive)	> 100 µM (inactive)	> 100 µM (inactive)	> 100 µM (inactive)	> 100 µM (inactive)	> 100 µM (inactive)	> 100 µM (inactive)	> 100 µM (inactive)	> 100 µM (inactive)	> 100 µM (inactive)	> 100 µM (inactive)	> 100 µM (inactive)
COc1cc(C/N=c2/nc(N(C)C)ss2)cc(OC)c1OC	> 10 µM	0.189 µM (active)	> 10 µM (inactive)	> 10 µM (inactive)	0.358 µM (active)	> 7.59 µM (inactive)	> 10 µM (inactive)	> 10 µM (inactive)	> 10 µM (inactive)	> 10 µM (inactive)	> 10 µM (inactive)	3.24 µM (inactive)	> 10 µM (inactive)	> 10 µM (inactive)	> 10 µM (inactive)	> 4.99 µM (inactive)	2.48 µM (inactive)	> 9.1 µM (inactive)		> 10 µM (inactive)
O=C1CSC2=NCC3(NN12)c1ccccc1-c1ccccc13	> 10 µM	> 10 µM (inactive)	> 10 µM (inactive)	> 10 µM (inactive)	> 10 µM (inactive)	> 10 µM (inactive)		> 10 µM (inactive)	> 10 µM (inactive)	> 10 µM (inactive)	> 10 µM (inactive)	> 10 µM (inactive)	> 10 µM (inactive)	> 10 µM (inactive)	> 10 µM (inactive)	> 10 µM (inactive)	> 10 µM (inactive)	> 10 µM (inactive)		> 10 µM (inactive)
Cc1nc(SCC(=O)Nc2ccccc2)c2sc(=S)n(-c3ccccc3)c2n1	> 10 µM	> 10 µM (inactive)	> 10 µM (inactive)	4.44 µM (inactive)	> 10 µM (inactive)	> 10 µM (inactive)	8.87 µM (inactive)	> 10 µM (inactive)	> 10 µM (inactive)	> 10 µM (inactive)		8.79 µM (inactive)	> 10 µM (inactive)	> 10 µM (inactive)	> 10 µM (inactive)	9.12 µM (inactive)	> 10 µM (inactive)	> 10 µM (inactive)	> 10 µM (inactive)	> 10 µM (inactive)
COC(=O)C(Cc1ccccc1)NC(=O)C(CCC(=O)OCc1ccccc1)NC(=O)OC(C)(C)C (stereo not given)	85.5 µM	64.9 µM (inactive)	> 100 µM (inactive)	> 100 µM (inactive)	27.2 µM (inactive)	83.9 µM (inactive)	> 100 µM (inactive)	31 µM (inactive)	> 100 µM (inactive)	82.6 µM (inactive)	26.1 µM (inactive)	> 100 µM (inactive)	> 100 µM (inactive)	> 100 µM (inactive)	> 100 µM (inactive)	> 100 µM (inactive)	25 µM (inactive)	> 100 µM (inactive)	> 100 µM (inactive)	> 100 µM (inactive)
COc1ccc(-c2cc(-c3ccccc3)[nH]c(=S)c2C#N)cc1	34.7 µM	17.3 µM (inactive)	76.7 µM (inactive)		32.6 µM (inactive)	45.4 µM (inactive)	25.8 µM (inactive)	28.2 µM (inactive)	39.1 µM (inactive)	41.2 µM (inactive)	20.6 µM (inactive)	27.2 µM (inactive)	61 µM (inactive)	39.8 µM (inactive)	16 µM (inactive)	29.8 µM (inactive)	20.7 µM (inactive)	25.4 µM (inactive)		19 µM (inactive)
